Experimental data reported in article PMC5599463, “PK/PD studies on non-selective PDE inhibitors in rats using cAMP as a marker of pharmacological response” (Naunyn-Schmiedeberg's Archives of Pharmacology, 2017).
Read-outs that look alike come from different tables or passages of the source. One block for each compound: values may come before it.

Key:
[1] = Pharmacokinetics after i.v. administration to endotoxemic rats (compartmental modelling); assay type: in vivo, Male Wistar rats
Experimental: (§1) All compounds were directly dissolved in 0.9% sterile saline and used within 1 day of preparation. The animals were divided into five groups (n = 3–4). […] All injections (1 mL kg^−1) were given to the tail vein of the rat under isoflurane anaesthesia. […] Subsequently, samples were kept on ice and centrifuged for 10 min at 3000×g at 4 °C (EBA 12 R, Hettich, Germany). The individual plasma samples were harvested and stored at −80 °C until analysis.
Then, the samples were extracted with 3 mL of dichloromethane for 20 min on a shaker (VXR Vibrax, IKA, Germany). Subsequently, all tubes were centrifuged (2000×g, 15 min) and organic layers were transferred to new glass tubes and evaporated under gentle stream of nitrogen at 37 °C. Dry residues were dissolved in 100 μL of mobile phase and placed in the autosampler vials. The volume of injection was set to 50 μL. The HPLC system (LaChrom Elite, Merck-Hitachi, Darmstadt, Germany) consisted of an L-2130 pump, an L-2200 autosampler, an L-2450 diode array detector and an L-2350 column oven. EZChrome Elite v. 3.2 (Merck-Hitachi) software was used for data acquisition. The analysis was performed on a LiChrospher 100 RP-18 column (250 mm × 4 mm) with a particle size of 5 μm protected with a LiChroCART (4 mm × 4 mm) guard column (Merck, Germany). The mobile phase consisted of dioxan, acetonitrile and aqueous solution of acetic acid (pH = 3.0) mixed at the ratio of 6.5:6.5:87 (v/v/v), respectively, and pumped at a flow rate of 1.2 mL min^−1. Analytical wavelength was set to 275 nm and temperature of separation was 35 °C.
To this end, one- or two-compartment pharmacokinetic models with linear or Michaelis–Menten type saturable elimination from the central compartment were tested. Both dose levels in each case were simultaneously fitted to obtain a single set of parameters. The final pharmacokinetic models for PTX and (±)-LSF were selected on the basis of visual inspection of the fitting, examination of residuals, parameter precision, Akaike Information Criteria (AIC), Bayesian Information Criteria (BIC) and analysis of the correlation matrix. Pharmacokinetic analysis was performed using Phoenix WinNonlin v. 6.3 (Pharsight Corp, Certara, St. Louis, MO, USA).

[2] = test system: cAMP levels in rat plasma; assay: PK/PD (IDR model II) of plasma cAMP in LPS-challenged rats; assay type: in vivo, Male Wistar rats; conditions: for cAMP levels in rat plasma after administration: 40 or 80 mg kg^−1 i.v. with LPS; for IC50: Rattus norvegicus
Experimental: as §1
The levels of cAMP in rat plasma were measured using the same HPLC system and a fluorescence detector (model FL-2485). The analysis was performed after incubation of plasma with 2-chloroacetaldehyde as a derivatization reagent in elevated temperature to form the fluorescing derivative—1,N^6-etheno-cAMP. To 100 μL of plasma (or plasma spiked with water standard solution of cAMP), 15 μL of 2 M 2-chloroacetaldehyde solution and 50 μL of 0.5 M acetate buffer (pH = 4.5) were added to a snap-cap tubes. Samples were then vortex-mixed (Reax top, Heidolph, Germany) for 20 s and incubated at 80 °C for 20 min. Thereafter, the reaction mixture was cooled on ice, the samples were centrifuged (3000×g, 10 min) and 100 μL of supernatants was placed in the autosampler vials. The volume of injection was 50 μL. The separation was performed at isocratic conditions at 35 °C using the mobile phase composed of 20 mM citric-phosphate buffer (pH = 3.2) and methanol mixed at the ratio of 91:9 (v/v) and pumped at a flow rate of 1.3 mL min^−1. The excitation and emission wavelengths were set to 280 and 420 nm, respectively. In these conditions, the retention time of 1,N^6-etheno-cAMP was 6 min.
Changes in plasma cAMP concentrations (CcAMP) over time following each compound administration may be described by the following equation:
1 dCcAMP/dt=kin−kout⋅It⋅CcAMP
3 It=1−Imax⋅Cp^γ/IC50^γ+Cp^γ
The second approach assumes that both compounds under investigation act with different potencies. Based on the results of the in vitro study, an additive interaction model was used (Eq. 4):
I max and γ in Eqs. (3) and (4) were fixed to 1 during fitting procedure.
(§2) The peak cAMP and TNF-α plasma levels following administration of LPS alone or LPS simultaneously with both doses of each compound were compared using a one-way ANOVA and Tukey’s HSD post hoc test. The normality of data distribution was checked by Shapiro–Wilk test. The relationship between decimal logarithms of peak cAMP and TNF-α plasma concentrations was verified by least squares linear regression analysis. All statistical analyses were performed using Statistica v. 12 (StatSoft Inc., USA). The significance level p was set at 0.05.

TNF-α plasma levels = assay: Plasma TNF-α levels in endotoxemic rats (ELISA); assay type: in vivo, Male Wistar rats; conditions: both doses (40 and 80 mg kg^−1 i.v.) with LPS, 90 min, p < 0.05
Experimental: as §1
Plasma TNF-α levels were measured by rat TNF-α Quantikine ELISA kit (R&D Systems, Minneapolis, MN, USA) according to the manufacturer’s protocol. The limit of quantification was 12.5 pg mL^−1.
as §2

[3] = test system: plasma cAMP concentrations; parameters: method as in Cheng et al. [1997]; conditions: ref Cheng et al. [1997], cited from earlier work; for plasma cAMP concentrations in mice: 10 mg kg^−1 p.o.; for cAMP levels in mice: 10 times higher dose than that of the PDE4 inhibitors (10 mg kg^−1 p.o.)
[4] = biological target: T1, human recombinant PDE4B (hrPDE4B) (Homo sapiens, UniProt Q07343); assay: PDE-Glo Phosphodiesterase Assay, hrPDE4B inhibition; assay type: biochemical; conditions: non-linear regression, in vitro
T1 construct: purchased SignalChem, Richmond, Canada
T1 sequence (Q07343 whole entry): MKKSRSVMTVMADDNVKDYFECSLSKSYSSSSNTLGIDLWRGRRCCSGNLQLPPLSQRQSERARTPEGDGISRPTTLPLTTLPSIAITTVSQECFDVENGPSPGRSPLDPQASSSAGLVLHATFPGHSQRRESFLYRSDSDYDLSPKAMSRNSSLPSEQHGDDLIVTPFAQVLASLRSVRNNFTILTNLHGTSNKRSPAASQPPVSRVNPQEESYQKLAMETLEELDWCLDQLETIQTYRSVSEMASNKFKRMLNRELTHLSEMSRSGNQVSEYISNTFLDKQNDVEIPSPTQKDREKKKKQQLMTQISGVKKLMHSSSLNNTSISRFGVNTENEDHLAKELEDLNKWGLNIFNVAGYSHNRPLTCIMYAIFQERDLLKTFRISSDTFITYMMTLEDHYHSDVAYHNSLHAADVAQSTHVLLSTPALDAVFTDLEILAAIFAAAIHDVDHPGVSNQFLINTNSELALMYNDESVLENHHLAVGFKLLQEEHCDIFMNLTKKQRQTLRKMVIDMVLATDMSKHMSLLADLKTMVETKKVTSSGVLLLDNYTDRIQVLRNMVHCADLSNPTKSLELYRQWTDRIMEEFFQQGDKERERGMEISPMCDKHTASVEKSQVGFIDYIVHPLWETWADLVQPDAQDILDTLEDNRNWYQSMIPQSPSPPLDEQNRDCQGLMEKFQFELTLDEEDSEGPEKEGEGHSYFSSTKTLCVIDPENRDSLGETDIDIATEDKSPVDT
Experimental: (§3) The tested compounds were dissolved in DMSO, and a serial dilution of the inhibitors was performed using 1× PDE-Glo reaction buffer. Then, 1 μL of diluted inhibitors and 2.5 μL of cAMP solution were added to each well. After 10 min of incubation in 30 °C, 2.5 μL of PDE-Glo™ Termination Buffer and 2.5 μL of PDE-Glo™ Detection Solution were added and the plate was incubated for 20 min at room temperature. Finally, 10 μL of Kinase-Glo® Reagent was pipetted to each well and after 10 min of incubation, the luminescence was measured using a microplate luminometer (POLARstar Omega, BMG LABTECH, Ortenberg, Germany). All data points are the average of two determinations.

[5] = biological target: T2, human recombinant PDE7A (hrPDE7A) (Homo sapiens, UniProt Q13946); assay: PDE-Glo Phosphodiesterase Assay, hrPDE7A inhibition; assay type: biochemical; conditions: for IC50: hrPDE7A, non-linear regression, in vitro
T2 construct: purchased SignalChem, Richmond, Canada
T2 sequence (Q13946 whole entry): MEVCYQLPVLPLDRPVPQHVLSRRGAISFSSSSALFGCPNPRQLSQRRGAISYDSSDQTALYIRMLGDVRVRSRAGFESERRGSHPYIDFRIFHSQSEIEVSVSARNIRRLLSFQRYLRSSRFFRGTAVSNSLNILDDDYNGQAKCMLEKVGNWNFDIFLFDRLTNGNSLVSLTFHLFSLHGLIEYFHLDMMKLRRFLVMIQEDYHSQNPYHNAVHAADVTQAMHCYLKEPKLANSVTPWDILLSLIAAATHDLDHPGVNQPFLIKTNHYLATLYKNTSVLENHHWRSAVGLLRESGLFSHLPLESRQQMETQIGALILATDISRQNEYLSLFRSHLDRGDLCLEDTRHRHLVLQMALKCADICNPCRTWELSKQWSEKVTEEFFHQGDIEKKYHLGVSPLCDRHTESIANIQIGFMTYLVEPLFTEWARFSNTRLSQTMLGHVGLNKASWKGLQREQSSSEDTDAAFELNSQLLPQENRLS
Experimental: as §3, with “Briefly, 1,5 μl of 1× PDE-Glo reaction buffer containing 10 mU of purified hrPDE4B or hrPDE7A (SignalChem, Richmond, Canada) was pipetted into 384-well plate wells (Thermo Scientific, USA). The tested” for “The tested”

cAMP plasma levels = conditions: cited from earlier work
[6] = parameters: method as in Wyska et al. [2007]; conditions: mice; ref Wyska et al. [2007]; cited from earlier work
[7] = test system: IL-12-induced murine T helper 1 (Th1) differentiation; parameters: method as in Bright et al. [1998]; conditions: dose-dependent manner; ref Bright et al. [1998]; cited from earlier work
[8] = test system: plasma cAMP concentration; parameters: method as in Tanahashi et al. [1999]; conditions: ref Tanahashi et al. [1999]; cited from earlier work
[9] = test system: plasma cAMP concentrations; assay: Plasma cAMP in rats with endotoxemia after i.p. theophylline (own unpublished data); assay type: in vivo; conditions: i.p. 50 mg kg^−1, 0.5 h after administration
[10] = Interaction indirect response model II, rats challenged with LPS, i.v., read-out: IC50 (plasma concentration producing 50% of maximum inhibition of cAMP kout), final estimate (CV%)
[11] = interaction IDR model II, endotoxemic rats, read-out: IC50 calculated using PK/PD model after conversion to

- lower in vivo IC50 value compared to PTX ([2]; PK/PD model, rats): approximately 20%
- IC50 [2, 10]: 3.43 µg/mL
SMILES: CC(O)CCCCn1c(=O)c2c(ncn2C)n(C)c1=O (racemic) [(±)-LSF, (±)-1-(5-hydroxyhexyl)-3,7-dimethylpurine-2,6-dione]
- VLSF (volume of (±)-LSF compartment), final estimate (CV%) ([1]; (±)-LSF parent drug, i.v. 40 and 80 mg kg^−1, endotoxemic rats, one-compartment Michaelis-Menten model): 1.22 (3.44) L kg^−1
- Km ([1]; male, Wistar, rat, plasma, iv, (±)-LSF parent drug, i.v., endotoxemic rats, read-out: Km (drug concentration at which elimination rate is half-maximal), final estimate (CV%)): 6.02 µg/mL
- cAMP levels in rat plasma after administration [2]: increase in cAMP levels in rat plasma in a dose-dependent manner
- IC50 [2, 11]: 12.2 µM
- peak cAMP level in comparison with the group receiving LPS only ([2]; dose of 40 mg kg^−1 i.v. with LPS 1 mg kg^−1, p > 0.05): did not increase
- TNF-α concentrations in plasma of endotoxemic rats (TNF-α plasma levels): significant decrease

SMILES: COc1ccc(C2CNC(=O)NC2)cc1O[C@H]1C[C@@H]2CC[C@H]1C2 [CP-80,633]
- plasma cAMP concentrations in mice [3]: increased plasma cAMP concentrations

- IC50 [4]: 46.6 µM
- IC50 [5]: 77.7 µM
SMILES: CC(C)Cn1c(=O)n(C)c(=O)c2[nH]cnc21 [IBMX, 1-methyl-3-(2-methylpropyl)-7H–purine-2,6-dione]

- IC50 [5]: > 500 µM
- activity as inhibitor of hrPDE7A ([5]; in vitro assay): ineffective
- IC50 [2, 10]: 4.48 µg/mL
SMILES: CC(=O)CCCCn1c(=O)c2c(ncn2C)n(C)c1=O [PTX, 1-(5-oxohexyl)-3,7-dimethylpurine-2,6-dione]
- half-life ([1]; male, Wistar, rat, plasma, iv, rats, i.v., read-out: elimination half-life (t0.5)): 16.4 min
- k el ([1]; male, Wistar, rat, plasma, iv, read-out: ke (rate constant for disappearance of parent compound), final estimate (CV%) (converted)): 0.000933 s⁻¹
- cAMP levels in rat plasma after administration [2]: increase in cAMP levels in rat plasma in a dose-dependent manner
- IC50 [2, 11]: 16.1 µM
- TNF-α concentrations in plasma of endotoxemic rats (TNF-α plasma levels): significant decrease
- cAMP plasma levels elevation compared to the placebo group (cAMP plasma levels; healthy subjects, i.v. infusion 300 mg in 1 h, measured 1 h from beginning of infusion, ref Kruuse et al. [2000]): approximately 50%

- IC50 [4]: 49.1 µM
- IC50 [5]: 266 µM
SMILES: C[C@@H](O)CCCCn1c(=O)c2c(ncn2C)n(C)c1=O [R-(-)-LSF]
- Km [6]: 15.08 mg/L
- Vmax [6]: 2.33 mg/min/kg
- inhibition of IL-12-induced murine Th1 differentiation [7]: inhibited

- IC50 [4]: 52.5 µM
- IC50 [5]: 328 µM
SMILES: C[C@H](O)CCCCn1c(=O)c2c(ncn2C)n(C)c1=O [S-(+)-LSF]

SMILES: CC(=O)Nc1ccc(-c2c[nH]c(=O)cn2)cc1 [SKF-94,120]
- cAMP levels in mice [3]: failed to alter cAMP levels significantly

SMILES: CN(C(=O)CCCOc1ccc2[nH]c(=O)ccc2c1)C1CCCCC1 [cilostamide]
- plasma cAMP concentration in dogs [8]: no

SMILES: OCCN(CCO)c1nc(N2CCCCC2)c2nc(N(CCO)CCO)nc(N3CCCCC3)c2n1 [dipyridamole]
- cAMP levels in mice [3]: failed to alter cAMP levels significantly

SMILES: COc1ccc2[nH]cc(CCNC(C)=O)c2c1 [melatonin]
- cAMP plasma levels in humans (cAMP plasma levels; administered orally, 1 h following administration, ref Zhdanova and Raz [1999]): significantly augmented

SMILES: COc1ccc(C2CNC(=O)C2)cc1OC1CCCC1 (centres unmarked) [rolipram]
- plasma cAMP concentrations in mice [3]: increased plasma cAMP concentrations
- plasma cAMP concentration in dogs [8]: elevated plasma cAMP concentration in dogs in a dose-dependent manner

SMILES: Cn1c(=O)c2[nH]cnc2n(C)c1=O [theophylline]
- plasma concentrations of cAMP [9]: 228.22 pmol/mL
- plasma levels of cAMP ([3]; mice, orally 100 mg kg^−1, 20 min post-dose): 296.9 pmol/mL

SMILES: CCCSc1nc(N[C@@H]2C[C@H]2c2ccc(F)c(F)c2)c2nnn([C@@H]3C[C@H](OCCO)[C@@H](O)[C@H]3O)c2n1 [ticagrelor]
- levels of cAMP in treated patients (cAMP plasma levels; patients, ref Li et al. [2017]): Elevated levels of cAMP

SMILES: CCOC(=O)C1=C[C@]2(CC)CCCN3CCc4c(n1c1ccccc41)[C@@H]32 [vinpocetine]
- cAMP levels in mice [3]: failed to alter cAMP levels significantly

SMILES: CCCOc1ccccc1-c1nc2nn[nH]c2c(=O)[nH]1 [zaprinast]
- cAMP levels in mice [3]: failed to alter cAMP levels significantly
